# Measurements taken from US20060121565A1, “Methods for increasing the production of a recombinant polypeptide from a host cell” (CYMIP A/S, priority 2002, published 2006).
# T1: protease performing the cleavage of synthetic human CCK-33 to CCK-22 (metalloprotease, identified as Cym1p) (Saccharomyces cerevisiae, UniProt P32898)
# T1 construct: endogenous in cells; host or cells: S. cerevisiae strain LJY123 (APE1, APE2, APE3 deleted; derived from Y14953), clarified crude cell extract
# T1 sequence (P32898 17-989): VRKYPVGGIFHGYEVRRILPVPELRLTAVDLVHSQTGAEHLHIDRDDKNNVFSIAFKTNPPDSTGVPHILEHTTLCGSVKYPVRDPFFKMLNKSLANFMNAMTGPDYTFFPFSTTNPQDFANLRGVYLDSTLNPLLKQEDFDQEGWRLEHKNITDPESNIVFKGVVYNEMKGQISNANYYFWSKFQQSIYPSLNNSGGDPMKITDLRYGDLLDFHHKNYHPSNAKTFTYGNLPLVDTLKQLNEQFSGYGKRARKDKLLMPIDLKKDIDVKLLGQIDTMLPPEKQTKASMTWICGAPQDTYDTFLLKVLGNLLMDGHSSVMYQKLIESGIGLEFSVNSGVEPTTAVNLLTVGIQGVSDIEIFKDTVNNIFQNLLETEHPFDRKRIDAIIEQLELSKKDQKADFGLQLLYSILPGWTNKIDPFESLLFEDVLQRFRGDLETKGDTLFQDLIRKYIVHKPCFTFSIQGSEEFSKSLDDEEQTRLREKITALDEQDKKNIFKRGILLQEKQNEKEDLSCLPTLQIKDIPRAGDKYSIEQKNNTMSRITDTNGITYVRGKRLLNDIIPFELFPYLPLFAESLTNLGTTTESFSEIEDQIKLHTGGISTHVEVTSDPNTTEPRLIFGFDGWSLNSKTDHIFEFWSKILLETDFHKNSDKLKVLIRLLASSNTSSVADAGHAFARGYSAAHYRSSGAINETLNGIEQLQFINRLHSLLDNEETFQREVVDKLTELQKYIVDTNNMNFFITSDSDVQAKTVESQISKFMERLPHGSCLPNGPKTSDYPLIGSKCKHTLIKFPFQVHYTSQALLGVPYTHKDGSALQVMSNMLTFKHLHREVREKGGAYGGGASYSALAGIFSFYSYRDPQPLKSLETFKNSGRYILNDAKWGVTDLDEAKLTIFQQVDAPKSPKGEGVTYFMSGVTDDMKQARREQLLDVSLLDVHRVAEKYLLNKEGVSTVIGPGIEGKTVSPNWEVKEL
# T2: Ac-CCK-33-Gly, P06307
# T2 chain: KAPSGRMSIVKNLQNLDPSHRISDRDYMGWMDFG
# B1: Saccharomyces cerevisiae Cym1p (protein)
# chain: T1 sequence (P32898 17-989)
# Assays:
# [1] = target: T1, protease performing the cleavage of synthetic human CCK-33 to CCK-22 (metalloprotease, identified as Cym1p); assay: In vitro protease assay: cleavage of synthetic CCK-33 to CCK-22 by crude yeast cell extract (LJY123); format: biochemical; conditions: extract from LJY123; 1 mM EDTA, 1 mM 1,10-orthophenanthroline; 30° C., 1 h
# Description: FIG. 4. In vitro protease assay including inhibitors and activators. The fraction of CCK-22 was calculated from the immuno-reactivity using Ab 89009 divided by the total amount of mature and N-terminal extended CCK-22 measured with Ab 89009 after trypsin treatment. A, Effect of different inhibitors. B, Protease reactivation by addition of 1.2 mM divalent metal ions to extracts where the activity had been inhibited with 1 mM EDTA. The data represent mean±SD of three independent experiments.
# FIG. 5. Protease reactivation by Zn^2+ and Mn^2+. […] The activity was measured as the fraction of matured CCK-22 after 30, 60 and 120 min incubation. The fraction of CCK-22 was calculated from the immuno-reactivity using Ab 89009 divided by the total amount of mature and N-terminal extended CCK-22 measured with Ab 89009 after trypsin treatment. […]
# Two different antisera were used to determine the amount of processed cholecystokinin. […] The fraction of CCK processed to CCK-22 is calculated by division of the immuno-reactivity measured with Ab 89009 with the amount measured with the same antibody after the sample was treated with trypsin to measure the total amount of N-terminal extended CCK-22. […]
# The nature of the protease performing the cleavage of synthetic human CCK-33 to CCK-22 was analysed by inclusion of a number of different inhibitors with the extract from LJY123. […]
# Ac-CCK-33-Gly, P06307 = target: T2, Ac-CCK-33-Gly, P06307
Molecule,inhibition of proteolysis of CCK-33 to CCK-22 [1],"rate of CCK-22 production in the in vitro protease assay (Ac-CCK-33-Gly, P06307)"
"c1cnc2c(c1)ccc1cccnc12 [1,10 ortho-phenanthroline]",inhibited,–
O=C(O)CN(CCN(CC(=O)O)CC(=O)O)CC(=O)O [EDTA],inhibited,–
B1,–,Expression of CYM1 on a multicopy plasmid enhanced the rate of CCK-22 production several fold
